Experimental data from the NIST ThermoML archive (doi:10.1021/acs.jced.6b00037).
Numbers after ± are expanded uncertainties.

Columns and labels:
[1] = Crystal; DSC
[2] = Molar enthalpy of transition or fusion; details: Crystal; DSC

Triple point temperature [1]: 363.2 ± 1.2 K | Molar enthalpy of transition or fusion [2]: 21.9 ± 0.99 kJ/mol
Compound: CCOC(=O)c1ccc(N)cc1 [ethyl 4-aminobenzoate]
